Assay results from patent publication US20130289071A1, “TETRAZOLYL-TETRAHYDROPYRIDINE COMPOUNDS FOR INFLAMMATION AND IMMUNE-RELATED USES” (Synta Pharmaceuticals Corp., priority 2010, published 2013).

Key:
[1] = target: T1, CRAC ion channels (ICRAC current), RBL-2H3 cells (Rattus norvegicus, UniProt Q5M848); test: Automated patch clamp (Qpatch) inhibition of ICRAC current in RBL-2H3 cells; assay type: cell-based; conditions: 100 nM compound, % ICRAC inhibition
T1 construct: endogenous in cells; host or cells: RBL-2H3 (rat basophilic leukemia) cells
Procedure: Automated patch clamp experiments are conducted with the QPatch 16 (Sophion Bioscience, Ballerup, Denmark) at room temperature (21-25° C.). Immediately following the establishment of giga-seal whole-cell configuration, the cells membrane potential is clamped at 0 mV. Voltage ramps of 50 ms duration spanning the voltage range of −100 to +100 mV are then stimulated at a rate of 0.33 Hz. Currents are filtered at 2.9 kHz and digitized at 200 μs intervals. Capacitive currents and series resistance are determined and corrected before each voltage ramp using the automatic capacitance compensation.
RBL-2H3 are grown in DMEM media supplemented with 10% fetal bovine serum, penicillin 100 U/ml and streptomycin […] in an atmosphere of 95% air/5% CO2. Cells are grown to confluence in 175 cm^2 tissue culture flask. On the experimental day, cells harvested with 0.25% trypsin/0.02% EDTA and resuspended in extracellular solution at density of 5×10^6 cells/ml.
The intracellular solution contains Cs-Glutamate 90 mM; NaCl 8 mM; MgCl2 3 mM; CsCl 20 mM; CsBAPTA 20 mM; HEPES 10 mM; InsP3 0.02 mM; pH=7.2 adjusted with CsOH.
The extracellular solution contains NMDGCl 120 mM; KCl 5.4 mM; CsCl 10 mM; CaCl2 10 mM; MgCl2 1 mM; HEPES 10 mM; Glucose 5.5 mM; at pH=7.4 adjusted with HCl.
ICRAC currents are measured using 50 msec voltage ramps between −100 mV to +100 mV. The voltage ramps are stimulated every 3 seconds for at least 570 seconds. The maximum ICRAC current is allowed to develop for at least 135 seconds. Compounds diluted in extracellular solutions are then applied twice, 30 seconds apart. After incubating the cells with compound for 435 seconds, a reference solution is applied at the end of the experiment. The reference solution is a Ca^2+ free extracellular solution.
Off-line analysis with the Qpatch software is used to plot the current value at −80 mV for each ramp trace against time. The resulting current versus time data is then exported into a Microsoft Excel spreadsheet. The ICRAC membrane currents are separated from the cells basal background currents by either subtracting out the average membrane current values during the first 1-3 traces, or the average membrane current values obtained with the reference solution at the end of the experiment. The % ICRAC inhibition in each cell is calculated by comparing the amount of current just prior to the first compound addition to the amount of current after the cells has been perfused with the compound for at least 400 seconds.

IL-2 production = test: Inhibition of IL-2 production (Jurkat/PHA/1% FBS, ELISA); assay type: cell-based; conditions: Jurkat cells, PHA 2.5 μg/mL
Procedure: JurkaT-cells were placed in a 96 well plate (0.5 million cells per well in 1% FBS medium), and then a test compound of this invention was added at different concentrations. After 10 minutes, the cells were activated with PHA (final concentration 2.5 μg/mL) and incubated for 20 hours at 37° C. under 5% CO2. The final volume was 200 μL. Following incubation, the cells were centrifuged, and the supernatants collected and stored at −70° C. prior to assaying for IL-2 production. A commercial ELISA kit (IL-2 Eli-pair, Diaclone Research, Besancon, France) was used to detect production of IL-2, from which dose response curves were obtained. The IC50 value was calculated as the concentration at which 50% of maximum IL-2 production after stimulation was inhibited versus a non-stimulation control.

T1 sequence (Q5M848 whole entry): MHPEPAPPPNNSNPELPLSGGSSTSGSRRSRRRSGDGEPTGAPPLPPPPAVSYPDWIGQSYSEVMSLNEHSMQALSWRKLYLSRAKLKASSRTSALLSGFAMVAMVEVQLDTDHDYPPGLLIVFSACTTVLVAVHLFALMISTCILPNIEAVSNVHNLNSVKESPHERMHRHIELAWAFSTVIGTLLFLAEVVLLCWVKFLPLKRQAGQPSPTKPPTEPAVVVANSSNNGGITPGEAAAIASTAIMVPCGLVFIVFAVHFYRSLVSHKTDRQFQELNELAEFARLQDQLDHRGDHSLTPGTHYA

SMILES	inhibition at 0.1 µM [1] [%]	IC50 (IL-2 production; Homo sapiens, Jurkat, 20 h) [nM]	IC50 (IL-2 production; 20 hours) [nM]
CC1=C(c2ccc(NC(=O)c3c(C)cccc3Cl)cc2)CN(c2nnn(C)n2)CC1 [Compound 31]	72		
CC1=C(c2ccc(NC(=O)c3cc(F)ccc3C)nc2)CN(c2nnn(C)n2)CC1 [Compound 29]	85		
CC1=C(c2cnc(NC(=O)c3ccccc3F)cn2)CN(c2nnn(C)n2)CC1 [Compound 54]	77	92	
CC1=C(c2ccc(NC(=O)c3cncc(F)c3C)cc2)CN(c2nnn(C)n2)CC1 [Compound 6]		13	
CCn1nnc(N2CCC(C)=C(c3ccc(NC(=O)c4cc(C)ncc4C)cc3)C2)n1 [Compound 70]		289	
CC1=C(c2cnc(NC(=O)c3cnccc3C)cn2)CN(c2nnn(C)n2)CC1 [Compound 72]		335	
Cc1ccncc1C(=O)Nc1ccc(C2=C(Cl)CCN(c3nnn(C)n3)C2)cn1 [Compound 67]		150	
CC1=C(c2ccc(NC(=O)c3cccc(F)c3C)nc2)CN(c2nnn(C)n2)CC1 [Compound 20]	65		
CCC1=C(c2ccc(NC(=O)c3cccc(F)c3F)cc2)CN(c2nnn(CF)n2)CC1 [Compound 3]		12	
CC1=C(c2cnc(NC(=O)c3cccc(F)c3C)cn2)CN(c2nnn(C)n2)CC1 [Compound 61]	64	116	
CC1=C(c2ccc(NC(=O)c3cnc(C)cc3C)cc2)CN(c2nnn(C)n2)CC1 [Compound 69]		219	
CC1=C(c2ccc(NC(=O)c3ccncc3Cl)cc2)CN(c2nnn(C)n2)CC1 [Compound 15]	53		
CC1=C(c2cnc(NC(=O)c3c(F)cccc3Cl)cn2)CN(c2nnn(C)n2)CC1 [Compound 5]		13	
Cn1nnc(N2CCC(Cl)=C(c3ccc(NC(=O)c4c(F)cccc4F)nc3)C2)n1 [Compound 4]		12	
CC1=C(c2ccc(C(=O)Nc3c(F)cccc3F)cc2)CN(c2nnn(C)n2)CC1 [Compound 41]	60	54	
CC1=C(c2cnc(NC(=O)c3cncc(F)c3C)cn2)CN(c2nnn(C)n2)CC1 [Compound 66]		147	
COc1cc(C)c(C(=O)Nc2ccc(C3=C(C)CCN(c4nnn(C)n4)C3)cc2)cn1 [Compound 48]		62	
CC1=C(c2ccc(NC(=O)c3cccc(F)c3F)cc2)CN(c2nnn(C(F)F)n2)CC1 [Compound 21]		26	
CC1=C(c2ccc(NC(=O)c3cnccc3C)cc2)CN(c2nnn(C)n2)CC1 [Compound 47]	70	62	
CC1=C(c2ccc(NC(=O)c3cc(F)ccc3Cl)cc2)CN(c2nnn(C)n2)CC1 [Compound 53]		85	

SMILES	inhibition at 0.1 µM [1] [%]	IC50 (IL-2 production; Homo sapiens, Jurkat, 20 h) [nM]	IC50 (IL-2 production; 20 hours) [nM]
CCC1=C(c2ccc(NC(=O)c3cccc(F)c3F)cc2)CN(c2nnn(CC)n2)CC1 [Compound 24]		33	
CC1=C(c2ccc(NC(=O)c3ncncc3C)cc2)CN(c2nnn(C)n2)CC1 [Compound 63]		124	
CCn1nnc(N2CCC(C)=C(c3cnc(NC(=O)c4c(F)cccc4Cl)cn3)C2)n1 [Compound 23]	81		
CC1=C(c2ccc(NC(=O)c3c(F)cccc3F)nc2)CN(c2nnn(C)n2)CC1 [Compound 8]		15	
CCCn1nnc(N2CCC(C)=C(c3ccc(NC(=O)c4cccc(F)c4F)cc3)C2)n1 [Compound 52]		77	
CC1=C(c2ccc(NC(=O)c3c(Cl)cncc3Cl)cc2)CN(c2nnn(C)n2)CC1 [Compound 57]		100	
Cn1nnc(N2CCC(Cl)=C(c3cnc(NC(=O)c4cc(F)ccc4Cl)cn3)C2)n1 [Compound 36]	88		
COc1cccc(F)c1C(=O)Nc1ccc(C2=C(C)CCN(c3nnn(C)n3)C2)cc1 [Compound 68]		163	
CC1=C(c2cnc(NC(=O)c3cccc(F)c3F)cn2)CN(c2nnn(C)n2)CC1 [Compound 37]	61	50	
CC1=C(c2ccc(NC(=O)c3ccccc3F)nc2)CN(c2nnn(C)n2)CC1 [Compound 42]		55	
CC1=C(c2cnc(C(=O)Nc3c(F)cccc3F)cn2)CN(c2nnn(C)n2)CC1 [Compound 50]		74	
CCc1c(F)cncc1C(=O)Nc1ccc(C2=C(C)CCN(c3nnn(C)n3)C2)cc1 [Compound 10]	87	16	
CC1=C(c2ccc(NC(=O)c3cccc(Cl)c3Cl)cc2)CN(c2nnn(C)n2)CC1 [Compound 62]		124	
CC1=C(c2cnc(NC(=O)c3c(F)cccc3F)cn2)CN(c2nnn(C)n2)CC1 [Compound 32]		46	
CC1=C(c2ccc(NC(=O)c3cccc(F)c3F)cc2)CN(c2nnn(CC(C)C)n2)CC1 [Compound 71]		312	
CCn1nnc(N2CCC(C)=C(c3ccc(NC(=O)c4cncc(F)c4C)cc3)C2)n1 [Compound 27]	68	37	
Cn1nnc(N2CCC(Cl)=C(c3ccc(NC(=O)c4c(F)cccc4F)cc3)C2)n1 [Compound 18]	74		
CC1=C(c2ccc(NC(=O)c3c(F)cccc3F)cc2)CN(c2nnn(C(C)C)n2)CC1 [Compound 44]		56	
CCc1c(F)cncc1C(=O)Nc1ccc(C2=C(C)CCN(c3nnn(CC)n3)C2)cc1 [Compound 59]		105	
CC(C)C1=C(c2ccc(NC(=O)c3ccc(F)cc3F)nc2)CN(c2nnn(C)n2)CC1 [Compound 64]		126	

SMILES	inhibition at 0.1 µM [1] [%]	IC50 (IL-2 production; Homo sapiens, Jurkat, 20 h) [nM]	IC50 (IL-2 production; 20 hours) [nM]
Cn1nnc(N2CCC(Cl)=C(c3ccc(NC(=O)c4ccncc4Cl)cc3)C2)n1 [Compound 43]		56	
[2H]C([2H])([2H])n1nnc(N2CCC(C)=C(c3ccc(NC(=O)c4cccc(F)c4F)cc3)C2)n1 [Compound 1]		10	
CC1=C(c2cnc(NC(=O)c3ccc(F)cc3F)cn2)CN(c2nnn(C)n2)CC1 [Compound 58]		104	
CC1=C(c2ccc(NC(=O)c3cccc(F)c3F)cc2)CN(c2nnn(CF)n2)CC1 [Compound 2]		11	
CCC1=C(c2cnc(NC(=O)c3ccc(F)cc3F)cn2)CN(c2nnn(C)n2)CC1 [Compound 49]		67	
Cn1nnc(N2CCC(Cl)=C(c3ccc(NC(=O)c4ccncc4F)cc3)C2)n1 [Compound 28]		39	
CCn1nnc(N2CCC(C)=C(c3ccc(NC(=O)c4cccc(F)c4F)cc3)C2)n1 [Compound 34]		47	
CC1=C(c2ccc(C(=O)Nc3c(F)cccc3F)cn2)CN(c2nnn(C)n2)CC1 [Compound 65]		127	
CC1=C(c2cnc(NC(=O)c3ccncc3Cl)cn2)CN(c2nnn(C)n2)CC1 [Compound 73]		423	
CCn1nnc(N2CCC(C)=C(c3ccc(NC(=O)c4cncnc4C)cc3)C2)n1 [Compound 74]		698	
CC1=C(c2ccc(NC(=O)c3c(F)cccc3Cl)nc2)CN(c2nnn(C)n2)CC1 [Compound 13]		17	
CC1=C(c2ccc(NC(=O)c3cccc(F)c3Cl)cc2)CN(c2nnn(C)n2)CC1 [Compound 16]	69		
CC(C)C1=C(c2cnc(NC(=O)c3c(F)cccc3F)cn2)CN(c2nnn(C)n2)CC1 [Compound 35]		49	
CC1=C(c2cnc(NC(=O)c3cc(F)cc(F)c3)cn2)CN(c2nnn(C)n2)CC1 [Compound 75]		803	
CCn1nnc(N2CCC(C)=C(c3ccc(NC(=O)c4cnccc4C)cc3)C2)n1 [Compound 55]		96	
CCC1=C(c2ccc(NC(=O)c3cccc(F)c3F)cc2)CN(c2nnn(C)n2)CC1 [Compound 7]		14	
CC1=C(c2ccc(NC(=O)c3cccnc3C)cc2)CN(c2nnn(C)n2)CC1 [Compound 60]		114	
CC1=C(c2ccc(NC(=O)c3ccccc3Cl)nc2)CN(c2nnn(C)n2)CC1 [Compound 51]		75	
CC1=C(c2ccc(NC(=O)c3cccc(F)c3F)cc2)CN(c2nnn(C)n2)CC1 [Compound 19]			22
COc1ccc(F)cc1C(=O)Nc1ccc(C2=C(C)CCN(c3nnn(C)n3)C2)cc1 [Compound 76]		1000	
